Data from ChEMBL document CHEMBL5108063, “Discovery, Chemistry, and Preclinical Development of Pritelivir, a Novel Treatment Option for Acyclovir-Resistant Herpes Simplex Virus Infections” (J Med Chem, 2022).

Key:
[1] = tested on: Human alphaherpesvirus 2; assay: Antiviral activity against HSV-2 infected in po dosed BALB/c mouse administered twice on infection day and three times daily from day 1 to 4 post infection; type: functional; conditions: Human alphaherpesvirus 2, 24 h
[2] = Oral bioavailability in rat; type: ADME, organism-based; conditions: in vivo
[3] = Oral bioavailability in dog; type: ADME, organism-based, Canis lupus familiaris; conditions: in vivo
[4] = Oral bioavailability in monkey; type: ADME, organism-based, Macaca mulatta; conditions: rhesus monkey, in vivo
[5] = Oral bioavailability in human at 350 mg administered as 1 hr intravenous infusion once a week and measured upto 24 hrs; type: ADME, organism-based; conditions: in vivo
[6] = Octanol/water partition coefficient, log P of the compound; type: physicochemical
[7] = tested on: Human alphaherpesvirus 1; assay: Antiviral activity against HSV-1 infected in Vero cells incubated for 5 days by fluorescence based microtiter plate reader assay; type: functional, organism-based; conditions: Human alphaherpesvirus 1, Vero, 120 h
[8] = tested on: Human alphaherpesvirus 2; assay: Antiviral activity against HSV-2 infected in Vero cells incubated for 5 days by fluorescence based microtiter plate reader assay; type: functional, organism-based; conditions: Human alphaherpesvirus 2, Vero, 120 h
[9] = tested on: Human alphaherpesvirus 1; assay: Antiviral activity against HSV-1 infected in po dosed BALB/c mouse administered twice on infection day and three times daily from day 1 to 4 post infection; type: functional; conditions: Human alphaherpesvirus 1, 96 h, time 4 day
[10] = target: Carbonic anhydrase 2 (Homo sapiens, UniProt P00918); assay: Inhibition of carbonic anhydrase 2 (unknown origin) by CO2 hydration assay
[11] = tested on: Human alphaherpesvirus 1; assay: Antiviral activity against HSV-1 McKrae infected in BALB/c mouse assessed as reduction in viral load at 50 mg/kg, po infected with virus for 35 days prior to heat stress reactivation followed by compound treatment immediately and at 12 hrs post reactivation measured after 24 hrs post reactivation; type: functional; parameters: scale not given: the % may be the effect or the level left
[12] = AUC in rat at 1 mg/kg, po; type: ADME, organism-based; parameters: dose 1 mg/kg, route po; conditions: in vivo
[13] = AUC in dog at 1 mg/kg, po; type: ADME, organism-based, Canis lupus familiaris; parameters: dose 1 mg/kg, route po; conditions: in vivo
[14] = AUC in monkey at 1 mg/kg, po; type: ADME, organism-based, Macaca mulatta; parameters: dose 1 mg/kg, route po; conditions: rhesus monkey, in vivo
[15] = AUC in human at 1 mg/kg, po; type: ADME, organism-based; parameters: dose 1 mg/kg, route po; conditions: in vivo
[16] = Half life in rat at 1 mg/kg, po; type: ADME, organism-based; conditions: in vivo
[17] = Half life in dog at 1 mg/kg, po; type: ADME, organism-based, Canis lupus familiaris; conditions: in vivo
[18] = Half life in monkey at 1 mg/kg, po; type: ADME, organism-based, Macaca mulatta; conditions: rhesus monkey, in vivo
[19] = Half life in human at 1 mg/kg, po; type: ADME, organism-based; conditions: in vivo
[20] = Oral bioavailability in rat at 1 mg/kg; type: ADME, organism-based; conditions: in vivo
[21] = Oral bioavailability in dog at 1 mg/kg; type: ADME, organism-based, Canis lupus familiaris; conditions: in vivo
[22] = Oral bioavailability in monkey at 1 mg/kg; type: ADME, organism-based, Macaca mulatta; conditions: rhesus monkey, in vivo
[23] = Oral bioavailability in human at 1 mg/kg; type: ADME, organism-based; conditions: in vivo
[24] = Protein binding in mouse plasma assessed as unbound fraction; type: ADME, cell-free
[25] = Protein binding in rat plasma assessed as unbound fraction; type: ADME, cell-free
[26] = Protein binding in guinea pig plasma assessed as unbound fraction; type: ADME, cell-free, Cavia porcellus
[27] = Protein binding in rabbit plasma assessed as unbound fraction; type: ADME, cell-free, Oryctolagus cuniculus
[28] = Protein binding in dog plasma assessed as unbound fraction; type: ADME, cell-free, Canis lupus familiaris
[29] = Protein binding in minipig plasma assessed as unbound fraction; type: ADME, cell-free, Sus scrofa domesticus; conditions: pig
[30] = Protein binding in monkey plasma assessed as unbound fraction; type: ADME, cell-free, Macaca mulatta; conditions: rhesus monkey
[31] = Protein binding in human plasma assessed as unbound fraction; type: ADME, cell-free
[32] = target: Voltage-gated inwardly rectifying potassium channel KCNH2 (Homo sapiens, UniProt Q12809); assay: Inhibition of human ERG expressed in HEK293 cells by whole cell patch clamp assay; type: toxicity, cell-based
[33] = Terminal elimination half life in human at […]; type: ADME, organism-based; conditions: in vivo, read-out: beta t1/2 (converted)
[34] = Oral bioavailability in human at 400 mg administered as 1 hr intravenous infusion; type: ADME, organism-based; conditions: in vivo

Chain of Voltage-gated inwardly rectifying potassium channel KCNH2 (Q12809 whole entry): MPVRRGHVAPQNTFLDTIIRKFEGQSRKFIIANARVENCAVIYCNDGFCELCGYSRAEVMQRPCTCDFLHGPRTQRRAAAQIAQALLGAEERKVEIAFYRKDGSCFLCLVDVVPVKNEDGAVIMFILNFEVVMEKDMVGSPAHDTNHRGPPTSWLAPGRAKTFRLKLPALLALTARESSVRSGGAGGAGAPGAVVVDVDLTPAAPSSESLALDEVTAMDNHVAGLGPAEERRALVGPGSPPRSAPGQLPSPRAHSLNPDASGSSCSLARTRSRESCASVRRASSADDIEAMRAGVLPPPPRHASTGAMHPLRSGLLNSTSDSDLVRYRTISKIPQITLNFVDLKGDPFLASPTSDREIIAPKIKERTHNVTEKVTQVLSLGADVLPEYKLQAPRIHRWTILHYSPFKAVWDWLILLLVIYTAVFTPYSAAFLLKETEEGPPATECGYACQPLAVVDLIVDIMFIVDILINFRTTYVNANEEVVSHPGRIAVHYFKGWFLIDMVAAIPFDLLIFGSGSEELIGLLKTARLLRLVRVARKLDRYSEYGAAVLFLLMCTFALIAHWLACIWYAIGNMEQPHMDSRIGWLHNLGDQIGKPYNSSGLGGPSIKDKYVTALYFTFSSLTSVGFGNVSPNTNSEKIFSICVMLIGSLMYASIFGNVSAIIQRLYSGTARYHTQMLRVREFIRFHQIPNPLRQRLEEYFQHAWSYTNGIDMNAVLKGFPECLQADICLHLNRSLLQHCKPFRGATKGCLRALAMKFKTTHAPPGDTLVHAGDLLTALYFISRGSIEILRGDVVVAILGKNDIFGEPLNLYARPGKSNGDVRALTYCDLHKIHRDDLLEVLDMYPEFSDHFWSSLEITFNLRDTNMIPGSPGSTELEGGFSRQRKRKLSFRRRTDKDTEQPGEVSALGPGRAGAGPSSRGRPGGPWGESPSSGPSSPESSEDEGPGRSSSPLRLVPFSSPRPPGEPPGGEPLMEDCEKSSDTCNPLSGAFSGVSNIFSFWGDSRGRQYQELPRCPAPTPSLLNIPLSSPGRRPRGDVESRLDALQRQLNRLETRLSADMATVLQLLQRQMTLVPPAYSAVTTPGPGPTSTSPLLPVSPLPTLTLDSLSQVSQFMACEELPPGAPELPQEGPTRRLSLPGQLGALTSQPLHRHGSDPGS

Nc1nc2c(ncn2COCCO)c(=O)[nH]1 [ACYCLOVIR]
ED50 [1]: 0.5 mg/kg
bioavailability [2]: 65%
bioavailability [3]: 83%
bioavailability [4]: 63%
bioavailability [5]: 54%

CS(=O)(=O)O.Cc1nc(N(C)C(=O)Cc2ccc(-c3ccccn3)cc2)sc1S(N)(=O)=O.O
logP [6]: 1.745

Cc1nc(N(C)C(=O)Cc2ccc(-c3ccccc3)cc2)sc1S(N)(=O)=O
IC50 [7]: < 0.05 nM
IC50 [8]: 5 nM

Cc1nc(N(C)C(=O)Cc2ccc(-c3ccccn3)cc2)sc1S(N)(=O)=O
IC50 [7]: 20 nM
IC50 [8]: 16 nM
ED50 [9]: 22 mg/kg
ED50 [1]: 16 mg/kg
IC50 [10]: 2000 nM
Activity [11]: 32%
AUC [12]: 12900 ng·h/mL
AUC [13]: 54200 ng·h/mL
AUC [14]: 39500 ng·h/mL
AUC [15]: 90800 ng·h/mL
t1/2 [16]: 5 h
t1/2 [17]: 22 h
t1/2 [18]: 30 h
half-life [19]: 60 h
bioavailability [20]: 65%
bioavailability [21]: 83%
F [22]: 63%
F [23]: 73%
Fu [24]: 0.97%
Fu [25]: 1.2%
Fu [26]: 5.9%
Fu [27]: 3.4%
Fu [28]: 1%
Fu [29]: 2.5%
Fu [30]: 0.75%
Fu [31]: 2.7%
IC50 [32]: 160000 nM
half-life [33]: 60 h
bioavailability [34]: 60%

Cc1nc(N(C)C(=O)Cc2ccc(-c3cccnc3)cc2)sc1S(N)(=O)=O
IC50 [7]: 5 nM
IC50 [8]: 5 nM

Cc1nc(N(C)C(=O)Cc2ccc(-n3cccn3)cc2)sc1S(N)(=O)=O
IC50 [7]: 10 nM
IC50 [8]: 100 nM

CNS(=O)(=O)c1sc(N(C)C(=O)Cc2ccc(-c3ccccc3)cc2)nc1C
IC50 [7]: 0.5 nM
IC50 [8]: 50 nM

Cc1nc(NC(=O)Nc2ccc(N3CCOCC3)cc2)sc1S(=O)(=O)N(C)C
IC50 [7]: 2000 nM
IC50 [8]: 4000 nM

Cc1ccc(F)cc1-c1ccc(CC(=O)N(C)c2nc(C)c(S(N)(=O)=O)s2)cc1
IC50 [7]: 100 nM
IC50 [8]: 125 nM

CNS(=O)(=O)c1ccc2c(c1)N(C(=O)Nc1ccc(N3CCCC3)cc1)C(C)C2 (centres undefined)
IC50 [7]: 25 nM
IC50 [8]: 40 nM

Cc1nc(C(C)C(=O)Nc2ccc(-c3ccccc3)cc2)sc1S(N)(=O)=O (centres undefined)
IC50 [7]: 50 nM
IC50 [8]: 10 nM

COc1ccc(F)cc1-c1ccc(CC(=O)N(C)c2nc(C)c(S(N)(=O)=O)s2)cc1
IC50 [7]: 0.25 nM
IC50 [8]: < 0.05 nM

CC1Cc2ccc(S(=O)(=O)NC3CC3)cc2N1C(=O)Nc1ccc(-c2ccccc2)cc1 (centres undefined)
IC50 [7]: 50 nM
IC50 [8]: 150 nM

CC(C)[C@H](N)C(=O)OCCOCn1cnc2c(=O)nc(N)[nH]c21 [VALACYCLOVIR]
ED50 [9]: 17 mg/kg
ED50 [1]: 14 mg/kg

Cc1nc(N(C)C(=O)Nc2ccc(-c3ccccc3)cc2)sc1S(=O)(=O)NC1CC1
IC50 [7]: 20 nM
IC50 [8]: 100 nM

Cc1nc(N(C)C(=O)Cc2ccc(-c3ccccc3)cc2)sc1S(=O)(=O)NCC(F)(F)F
IC50 [7]: 50 nM
IC50 [8]: 150 nM

Nc1nc2c(ncn2CCC(CO)CO)c(=O)[nH]1 [PENCICLOVIR]
bioavailability [34]: 60%

Cc1nc(N(C)C(=O)Cc2ccc(-c3ccccc3)cc2)sc1S(=O)(=O)NCCO
IC50 [7]: 0.75 nM
IC50 [8]: 5 nM

Cc1nc(N(C)C(=O)Nc2ccc(N3CCOCC3)cc2)sc1S(=O)(=O)N(C)C
IC50 [7]: 750 nM
IC50 [8]: 1500 nM

COc1ccccc1-c1ccc(CC(=O)N(C)c2nc(C)c(S(N)(=O)=O)s2)cc1
IC50 [7]: 2 nM
IC50 [8]: 0.05 nM

CNS(=O)(=O)c1sc(N(C)C(=O)Nc2ccc(-c3ccccc3)cc2)nc1C
IC50 [7]: 1 nM
IC50 [8]: 5 nM

Cc1nc(N(C)C(=O)Cc2ccc(-c3ccccc3)cc2)sc1S(=O)(=O)NCCN
IC50 [7]: 100 nM

Cc1nc(N(C)C(=O)Cc2ccc(-c3c(C)noc3C)cc2)sc1S(N)(=O)=O
IC50 [7]: > 5 nM

CC1Cc2ccc(S(N)(=O)=O)cc2N1C(=O)Nc1ccc(-c2ccccc2)cc1 (centres undefined)
IC50 [7]: 10 nM
IC50 [8]: 60 nM
